Tests used:
human TLR7 = human TLR7 (Homo sapiens (Human), UniProt Q9NYK1); experiment: TLR7 inhibition reporter assay (HEK-Blue SEAP); type: cell-based; conditions: HEK-Blue cells overexpressing human TLR7, gardiquimod 7.5 μM stimulation, SEAP reporter
human TLR8 = human TLR8 (Homo sapiens (Human), UniProt Q9NR97); experiment: TLR8 inhibition reporter assay (HEK-Blue SEAP); conditions: read-out: TLR8 IC50; HEK-Blue cells overexpressing human TLR8, R848 15.9 μM stimulation, SEAP reporter;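 further: SEAP driven by IFN-β minimal promoter carrying NF-κB and AP-1 sites, compounds dosed 0.05 nM to 50 µM for 22 h, inhibition scaled between agonist-plus-DMSO and reference-inhibitor wells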
human TLR9 = human TLR9 (Homo sapiens (Human), UniProt Q9NR96); experiment: TLR9 inhibition reporter assay (HEK-Blue SEAP); conditions: read-out: TLR9 IC50; HEK-Blue cells overexpressing human TLR9, ODN2006 5 nM stimulation, SEAP reporter;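 further: SEAP driven by an IFN-β minimal promoter with NF-κB and AP-1 sites, read after 22 h, compounds dosed 0.05 nM–50 µM, inhibition scaled between agonist plus DMSO and reference-inhibitor wells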
Sequence of human TLR9 (Q9NR96 26-1032): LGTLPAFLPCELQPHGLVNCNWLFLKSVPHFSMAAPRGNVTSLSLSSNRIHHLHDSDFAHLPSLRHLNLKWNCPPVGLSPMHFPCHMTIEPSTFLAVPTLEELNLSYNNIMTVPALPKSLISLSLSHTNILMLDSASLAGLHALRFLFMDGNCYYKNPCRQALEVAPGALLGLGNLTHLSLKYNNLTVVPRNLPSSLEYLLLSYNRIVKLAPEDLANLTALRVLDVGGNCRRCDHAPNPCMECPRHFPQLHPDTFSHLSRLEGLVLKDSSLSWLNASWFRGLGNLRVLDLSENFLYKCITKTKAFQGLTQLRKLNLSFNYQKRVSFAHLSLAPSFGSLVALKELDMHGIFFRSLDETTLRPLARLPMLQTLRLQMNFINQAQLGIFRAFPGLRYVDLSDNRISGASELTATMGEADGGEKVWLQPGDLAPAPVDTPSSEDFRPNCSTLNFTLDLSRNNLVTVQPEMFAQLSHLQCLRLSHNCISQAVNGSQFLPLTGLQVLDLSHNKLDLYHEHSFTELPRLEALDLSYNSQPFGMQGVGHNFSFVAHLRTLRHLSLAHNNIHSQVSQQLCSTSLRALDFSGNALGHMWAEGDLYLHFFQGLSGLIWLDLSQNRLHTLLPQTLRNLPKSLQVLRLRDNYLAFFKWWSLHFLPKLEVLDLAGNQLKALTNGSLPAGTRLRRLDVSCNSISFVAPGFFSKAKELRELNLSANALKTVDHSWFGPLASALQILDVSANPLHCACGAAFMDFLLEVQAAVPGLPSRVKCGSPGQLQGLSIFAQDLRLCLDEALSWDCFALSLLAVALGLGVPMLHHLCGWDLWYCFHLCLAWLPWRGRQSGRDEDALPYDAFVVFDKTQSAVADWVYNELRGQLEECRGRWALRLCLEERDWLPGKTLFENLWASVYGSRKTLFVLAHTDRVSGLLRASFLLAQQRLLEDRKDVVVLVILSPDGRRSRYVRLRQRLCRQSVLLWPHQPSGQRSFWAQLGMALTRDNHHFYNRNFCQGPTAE

Sequence of human TLR7 (Q9NYK1 27-1049): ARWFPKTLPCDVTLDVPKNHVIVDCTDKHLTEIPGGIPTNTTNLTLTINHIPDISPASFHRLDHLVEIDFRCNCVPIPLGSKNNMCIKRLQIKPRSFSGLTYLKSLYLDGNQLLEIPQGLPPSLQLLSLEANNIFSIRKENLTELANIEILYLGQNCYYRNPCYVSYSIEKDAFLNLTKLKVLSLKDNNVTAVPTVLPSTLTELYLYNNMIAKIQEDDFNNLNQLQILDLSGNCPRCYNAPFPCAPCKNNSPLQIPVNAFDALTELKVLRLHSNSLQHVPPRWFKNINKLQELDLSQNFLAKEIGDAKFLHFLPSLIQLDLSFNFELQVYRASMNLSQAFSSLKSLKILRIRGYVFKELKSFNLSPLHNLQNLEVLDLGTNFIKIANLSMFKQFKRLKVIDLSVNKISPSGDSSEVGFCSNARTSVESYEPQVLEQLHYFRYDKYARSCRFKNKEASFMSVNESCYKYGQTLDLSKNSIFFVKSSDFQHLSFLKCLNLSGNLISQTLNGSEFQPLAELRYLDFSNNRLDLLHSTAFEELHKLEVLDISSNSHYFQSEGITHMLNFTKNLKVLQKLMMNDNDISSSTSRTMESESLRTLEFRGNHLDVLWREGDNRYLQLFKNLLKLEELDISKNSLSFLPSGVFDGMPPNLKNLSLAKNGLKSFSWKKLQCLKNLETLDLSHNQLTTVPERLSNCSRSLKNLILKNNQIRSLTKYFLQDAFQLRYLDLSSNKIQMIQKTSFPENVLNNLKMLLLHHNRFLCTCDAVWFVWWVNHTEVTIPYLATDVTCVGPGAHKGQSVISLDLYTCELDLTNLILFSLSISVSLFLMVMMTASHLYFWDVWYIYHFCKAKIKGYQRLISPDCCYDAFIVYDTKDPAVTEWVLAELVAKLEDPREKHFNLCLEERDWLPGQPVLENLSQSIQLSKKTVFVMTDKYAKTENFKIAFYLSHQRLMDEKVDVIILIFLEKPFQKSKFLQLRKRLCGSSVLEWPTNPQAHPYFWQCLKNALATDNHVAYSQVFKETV
Sequence of human TLR8 (Q9NR97 27-1041): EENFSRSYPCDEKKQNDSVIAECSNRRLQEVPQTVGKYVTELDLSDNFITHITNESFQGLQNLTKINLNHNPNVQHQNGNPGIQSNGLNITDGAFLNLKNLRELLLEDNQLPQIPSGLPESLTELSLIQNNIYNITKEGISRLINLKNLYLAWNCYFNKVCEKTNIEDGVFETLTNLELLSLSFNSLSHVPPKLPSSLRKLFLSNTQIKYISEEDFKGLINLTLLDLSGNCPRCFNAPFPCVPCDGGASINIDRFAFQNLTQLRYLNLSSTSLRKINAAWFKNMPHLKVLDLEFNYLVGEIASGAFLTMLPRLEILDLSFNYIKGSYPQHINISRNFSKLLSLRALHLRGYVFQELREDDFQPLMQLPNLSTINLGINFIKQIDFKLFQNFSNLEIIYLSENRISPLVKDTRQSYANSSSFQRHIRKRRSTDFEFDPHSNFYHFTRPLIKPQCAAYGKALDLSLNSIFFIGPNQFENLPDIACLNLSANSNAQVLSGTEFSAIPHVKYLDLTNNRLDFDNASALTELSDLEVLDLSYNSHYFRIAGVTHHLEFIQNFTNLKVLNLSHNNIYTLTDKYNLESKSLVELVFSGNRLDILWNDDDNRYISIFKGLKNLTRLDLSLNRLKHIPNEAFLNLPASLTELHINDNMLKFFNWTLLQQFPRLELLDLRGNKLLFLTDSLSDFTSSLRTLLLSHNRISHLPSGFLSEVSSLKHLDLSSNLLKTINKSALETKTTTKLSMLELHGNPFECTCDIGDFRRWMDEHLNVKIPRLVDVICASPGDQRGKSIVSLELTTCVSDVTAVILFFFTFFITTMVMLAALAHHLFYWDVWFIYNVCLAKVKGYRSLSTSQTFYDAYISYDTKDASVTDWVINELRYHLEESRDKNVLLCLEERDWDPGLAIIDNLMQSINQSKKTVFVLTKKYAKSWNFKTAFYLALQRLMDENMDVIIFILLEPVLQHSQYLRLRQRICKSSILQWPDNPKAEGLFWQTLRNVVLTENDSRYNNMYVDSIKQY

SMILES | IC50 (human TLR7) [nM] | IC50 (human TLR8) [nM] | IC50 (human TLR9) [nM]
Cc1c(-c2[nH]c3ccc(N4CCN(C(=O)CNC(C)C)CC4)nc3c2C(C)C)cn2ncnc2c1C [Example 157] | 2.2 | 1.2 | 8840
Cc1c(-c2[nH]c3ccc(N4CCN(C(=O)CNCCO)CC4)nc3c2C(C)C)cn2ncnc2c1C [Example 158] | 2.3 | 0.96 | 8260
COCCNCC(=O)N1CCN(c2ccc3[nH]c(-c4cn5ncnc5c(C)c4C)c(C(C)C)c3n2)CC1 [Example 159] | 2.4 | 1 | 7740
Cc1c(-c2[nH]c3ccc(N4CCN(C(=O)CN5CCC(O)CC5)CC4)nc3c2C(C)C)cn2ncnc2c1C [Example 160] | 1.8 | 1.2 | 10600
Cc1c(-c2[nH]c3ccc(N4CCCNCC4)nc3c2C(C)C)cn2ncnc2c1C [Example 162] | 2.8 | 2.8 | 23100
Cc1c(-c2[nH]c3ccc(N4CCCN(CC(=O)N(C)C)CC4)nc3c2C(C)C)cn2ncnc2c1C [Example 163] | 9.7 | 5 | 24800
Cc1c(-c2[nH]c3ccc(N4CCC(NCC5(S(C)(=O)=O)CC5)C4)nc3c2C(C)C)cn2ncnc2c1C (stereo not drawn) [Example 165] | 11 | 0.68 | 22700
COc1cc(-c2[nH]c3ccc(C4CCC(N(C)CCO)CC4)nc3c2C(C)C)cn2ncnc12 (stereo not drawn) [Example 169] | 3.1 | 21 | 1220
COc1cc(-c2[nH]c3ccc(C4CCC(N(C)C(C)C)CC4)nc3c2C(C)C)cn2ncnc12 (stereo not drawn) [Example 170] | 2 | 17 | 1410
COc1cc(-c2[nH]c3ccc(C4CCC(N(C)C5CC5)CC4)nc3c2C(C)C)cn2ncnc12 (stereo not drawn) [Example 172] | 1.9 | 13 | 1790
COc1cc(-c2[nH]c3ccc(C4CCC(N5CCC[C@H]5CO)CC4)nc3c2C(C)C)cn2ncnc12 (stereo partly drawn) [Example 173] | 2 | 10 | 578
COc1cc(-c2[nH]c3ccc(C4CCC(N5CCCC5)CC4)nc3c2C(C)C)cn2ncnc12 (stereo not drawn) [Example 174] | 4.3 | 37 | 1470
COc1cc(-c2[nH]c3ccc(C4CCC(=O)CC4)nc3c2C(C)C)cn2ncnc12 [Example 176] | 5.2 | 84 | 16000
COc1cc(-c2[nH]c3ccc(C4CCC(NC5COC5)CC4)nc3c2C(C)C)cn2ncnc12 (stereo not drawn) [Example 180] | 2.8 | 11 | 1870
COc1cc(-c2[nH]c3ccc(C4CCC(NCC(=O)N(C)C)CC4)nc3c2C(C)C)cn2ncnc12 (stereo not drawn) [Example 181] | 1.7 | 13 | 561
CC(C)c1c(-c2cn(C)c3ncccc23)[nH]c2ccc(C3CCC(NCC(=O)N(C)C)CC3)nc12 (stereo not drawn) [Example 183] | 5.6 | 15 | 1030
CC(C)c1c(-c2cn(C)c3ncccc23)[nH]c2ccc(C3CCC(NC4COC4)CC3)nc12 (stereo not drawn) [Example 184] | 8.8 | 18 | 2050
CC(C)c1c(-c2cn(C)c3ncccc23)[nH]c2ccc(C3CCC(NC4COC4)CC3)nc12 (stereo not drawn) [Example 185] | 38 | 110 | 10300
COc1cc(-c2[nH]c3ccc(C4CCC(NC5COC5)CC4)nc3c2C(C)C)cn2ncnc12 (stereo not drawn) [Example 186] | 2.2 | 9.3 | 1010
COc1cc(-c2[nH]c3ccc(C4CCC(N(C)C)CC4)nc3c2C(C)C)cn2ncnc12 (stereo not drawn) [Example 187] | 2.1 | 20 | 4220
CNC1CCC(c2ccc3[nH]c(-c4cc(OC)c5ncnn5c4)c(C(C)C)c3n2)CC1 (stereo not drawn) [Example 189] | 1.6 | 6.7 | 313
COc1cc(-c2[nH]c3ccc(C4CCC(N5CCCC5)CC4)nc3c2C(C)C)cn2ncnc12 (stereo not drawn) [Example 192] | 3.1 | 19 | 1110
COc1cc(-c2[nH]c3ccc(C4CCC(N5CCOCC5)CC4)nc3c2C(C)C)cn2ncnc12 (stereo not drawn) [Example 194] | 8.6 | 47 | 3590
COc1cc(-c2[nH]c3ccc(C4CCC(NCc5cnc(C)cn5)CC4)nc3c2C(C)C)cn2ncnc12 (stereo not drawn) [Example 196] | 1.7 | 10 | 712
CC(C)c1c(-c2cn(C)c3ncccc23)[nH]c2ccc(C3CCC(N(C)CC(=O)N(C)C)CC3)nc12 (stereo not drawn) [Example 200] | 1.8 | 8.5 | 773
COc1cc(-c2[nH]c3ccc(C4CCC(N(C)Cc5cnc(C)cn5)CC4)nc3c2C(C)C)cn2ncnc12 (stereo not drawn) [Example 202] | 3.8 | 28 | 2030
COc1cc(-c2[nH]c3ccc(C4CCC(N(C)Cc5cnc(C)cn5)CC4)nc3c2C(C)C)cn2ncnc12 (stereo not drawn) [Example 203] | 2 | 7.9 | 537
COc1cc(-c2[nH]c3ccc(C4CCC(NCc5cnco5)CC4)nc3c2C(C)C)cn2ncnc12 (stereo not drawn) [Example 206] | 9.5 | 22 | 2390
Cc1cnc(CNC2CCC(c3ccc4[nH]c(-c5cn(C)c6ncccc56)c(C(C)C)c4n3)CC2)cn1 (stereo not drawn) [Example 207] | 1.9 | 4.4 | 253
COc1cc(-c2[nH]c3ccc(C4CCC(N(C)Cc5ncccn5)CC4)nc3c2C(C)C)cn2ncnc12 (stereo not drawn) [Example 208] | 2.2 | 16 | 1350

Stronger by IC50 (human TLR7), values ahead:

IC50 (human TLR7) [nM] | IC50 (human TLR8) [nM] | IC50 (human TLR9) [nM] | SMILES
1.4 | 0.92 | 5920 | Cc1c(-c2[nH]c3ccc(N4CCN(C(=O)CNCC5CC5)CC4)nc3c2C(C)C)cn2ncnc2c1C [Example 161]
1.5 | 18 | 2190 | COc1cc(-c2[nH]c3ccc(C4CCC(N(C)CCC#N)CC4)nc3c2C(C)C)cn2ncnc12 (stereo not drawn) [Example 166]
0.43 | 1.7 | 156 | COc1cc(-c2[nH]c3ccc(C4CCC(NC(C)C)CC4)nc3c2C(C)C)cn2ncnc12 (stereo not drawn) [Example 167]
0.89 | 3.4 | 658 | COc1cc(-c2[nH]c3ccc(C4CCC(N(C)C(C)C)CC4)nc3c2C(C)C)cn2ncnc12 (stereo not drawn) [Example 168]
0.45 | 1.8 | 560 | COc1cc(-c2[nH]c3ccc(C4CCC(N(C)C5CC5)CC4)nc3c2C(C)C)cn2ncnc12 (stereo not drawn) [Example 171]
0.35 | 2 | 926 | COc1cc(-c2[nH]c3ccc(C4CCC(N(C)CCC#N)CC4)nc3c2C(C)C)cn2ncnc12 (stereo not drawn) [Example 175]
0.28 | 2.5 | 148 | COc1cc(-c2[nH]c3ccc(C4CCC(N(C)C)CC4)nc3c2C(C)C)cn2ncnc12 (stereo not drawn) [Example 177]
0.48 | 1.8 | 895 | COc1cc(-c2[nH]c3ccc(C4CCC(NC5COC5)CC4)nc3c2C(C)C)cn2ncnc12 (stereo not drawn) [Example 178]
0.92 | 7 | 1740 | COc1cc(-c2[nH]c3ccc(C4CCC(N(C)C)CC4)nc3c2C(C)C)cn2ncnc12 (stereo not drawn) [Example 179]
0.48 | 1.1 | 301 | CC(C)c1c(-c2cn(C)c3ncccc23)[nH]c2ccc(C3CCC(NCC(=O)N(C)C)CC3)nc12 (stereo not drawn) [Example 182]
0.29 | 2.5 | 158 | CNC1CCC(c2ccc3[nH]c(-c4cc(OC)c5ncnn5c4)c(C(C)C)c3n2)CC1 (stereo not drawn) [Example 188]
0.8 | 2.8 | 353 | COc1cc(-c2[nH]c3ccc(C4CCC(NCc5cnc(C)cn5)CC4)nc3c2C(C)C)cn2ncnc12 (stereo not drawn) [Example 190]
0.9 | 2.7 | 202 | COc1cc(-c2[nH]c3ccc(C4CCC(N(C)CCO)CC4)nc3c2C(C)C)cn2ncnc12 (stereo not drawn) [Example 191]
1.5 | 6 | 648 | COc1cc(-c2[nH]c3ccc(C4CCC(NC(C)C)CC4)nc3c2C(C)C)cn2ncnc12 (stereo not drawn) [Example 193]
0.8 | 4.3 | 530 | COc1cc(-c2[nH]c3ccc(C4CCC(N5CCCC5)CC4)nc3c2C(C)C)cn2ncnc12 (stereo not drawn) [Example 195]
0.34 | 1.7 | 134 | COc1cc(-c2[nH]c3ccc(C4CCC(N5CCC[C@H]5CO)CC4)nc3c2C(C)C)cn2ncnc12 (stereo partly drawn) [Example 197]
1 | 7.8 | 1140 | COCCN(C)C1CCC(c2ccc3[nH]c(-c4cc(OC)c5ncnn5c4)c(C(C)C)c3n2)CC1 (stereo not drawn) [Example 198]
0.16 | 6.4 | 1190 | COc1cc(-c2[nH]c3ccc(C4CCC(N5CCCC5)CC4)nc3c2C(C)C)cn2ncnc12 (stereo not drawn) [Example 199]
1.5 | 6 | 570 | CC(C)c1c(-c2cn(C)c3ncccc23)[nH]c2ccc(C3CCC(N(C)CC(=O)N(C)C)CC3)nc12 (stereo not drawn) [Example 201]
0.98 | 2.9 | 1330 | COc1cc(-c2[nH]c3ccc(C4CCC(NCc5cnco5)CC4)nc3c2C(C)C)cn2ncnc12 (stereo not drawn) [Example 204]
0.42 | 1 | 134 | Cc1cnc(CNC2CCC(c3ccc4[nH]c(-c5cn(C)c6ncccc56)c(C(C)C)c4n3)CC2)cn1 (stereo not drawn) [Example 205]
0.71 | 4 | 641 | COc1cc(-c2[nH]c3ccc(C4CCC(N(C)Cc5ncccn5)CC4)nc3c2C(C)C)cn2ncnc12 (stereo not drawn) [Example 209]

From patent US10544143B2, “4-azaindole compounds” (BRISTOL-MYERS SQUIBB COMPANY, priority 2017, dated 2020)
